From patent publication US20110269788A1, “SPIRO-OXINDOLE-DERIVATIVES AS SODIUM CHANNEL BLOCKERS” (Xenon Pharmaceuticals Inc., priority 2008, published 2011)

Assays:
CYP2C9 = CYP2C9 (Homo sapiens, UniProt P11712); assay: in vitro
Text: (§1) CYP450 (CYP) is a designation for a superfamily of enzymes. Each family consists of one or more subfamilies and each subfamily contains one or more specific CYP isoforms. The Cytochrome P450 (CYP450) Inhibition Assay is a fluorescence-based assay using a cytochrome CYP isozyme for screening of compounds of the invention to determine the level of CYP inhibition by a specific compound. The assay is based on the CYP inhibition kit described by Vivid CYP450 Screening Kit Protocol, 2005, Invitrogen Corporation (Invitrogen Corporation, 1600 Faraday Avenue, Carlsbad, Calif. 92008, USA).
(§2) This assay is designed to assess compounds by quantifying the inhibition of the predominant human CYP isozymes involved in hepatic drug metabolism. […] The standard method for evaluating specific CYP isozyme inhibition is to determine the conversion rate of a probe substrate into its metabolite, in the presence and absence of the potential inhibitor. Quantification of the metabolite is achieved by HPLC or by using a probe substrate (Table 3) that is metabolized into a fluorescent product (fluorescent assay).
(§3) This assay can be used for single concentration screening or for IC50 determination. In a single concentration screening assay, the final assay concentration of the test compound is 10 μM. In an IC50 determination assay, IC50 may be determined using a 3, 6, or 12 point curve in triplicate with a chosen starting concentration diluted serially.
(§4) In the Preparation Stage, the test compounds, controls (acetonitrile (ACN) or Dimethyl sulfoxide (DMSO) and No Baculosomes), and known inhibitors (Table 4) were diluted to 10% ACN or DMSO in water at appropriate concentrations.

CYP3A4 = molecular target: T1, CYP3A4 (Homo sapiens, UniProt P08684); assay: Cytochrome P450 (CYP450) inhibition assay, Vivid fluorescence, CYP3A4; type: in vitro ADME; conditions: P450 Baculosomes (CYP3A4), probe Vivid substrate (fluorogenic, not named)
T1 construct: purchased Invitrogen Corporation Vivid CYP450 Screening Kit (catalogue number not given)

sodium channel = type: cell-based, human or rat; conditions: known cell line that expresses a sodium channel
CHO-K1 (NaV1.4) = type: cell-based, Chinese Hamster
L6 (Nav1.4 and 1.5) = type: cell-based, rat
SK-N-BE2C (NaV1.8) = SK-N-BE2C (NaV1.8) (Homo sapiens, UniProt Q9Y5Y9); type: cell-based
[1] = tested on: SH-SY5Y (NaV1.9 and NaV1.7); type: cell-based, Human
PC12 (Nav1.2) = PC12 (Nav1.2) (Rattus norvegicus, UniProt P04775)
CYP2D6 = CYP2D6 (Homo sapiens, UniProt P10635); assay: in vitro
Text: as §1, §2, §3, §4

CYP2C19 = CYP2C19 (Homo sapiens, UniProt P33261); assay: in vitro
Text: as §1, §2, §3, §4

T1 sequence (P08684 whole entry): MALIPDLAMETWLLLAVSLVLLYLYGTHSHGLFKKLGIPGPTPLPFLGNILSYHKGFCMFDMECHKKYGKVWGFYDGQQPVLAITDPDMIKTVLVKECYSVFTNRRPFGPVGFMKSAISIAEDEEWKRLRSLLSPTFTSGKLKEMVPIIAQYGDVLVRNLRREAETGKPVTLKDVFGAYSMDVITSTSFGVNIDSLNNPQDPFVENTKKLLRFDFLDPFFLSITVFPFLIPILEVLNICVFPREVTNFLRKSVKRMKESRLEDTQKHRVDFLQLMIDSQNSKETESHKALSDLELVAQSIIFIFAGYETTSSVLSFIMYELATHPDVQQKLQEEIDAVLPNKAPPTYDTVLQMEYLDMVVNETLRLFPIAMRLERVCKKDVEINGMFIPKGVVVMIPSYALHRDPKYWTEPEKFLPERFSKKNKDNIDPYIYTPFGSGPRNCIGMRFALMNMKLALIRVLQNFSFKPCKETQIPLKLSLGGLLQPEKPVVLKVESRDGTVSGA
Sequence of PC12 (Nav1.2) (P04775 whole entry, looked up): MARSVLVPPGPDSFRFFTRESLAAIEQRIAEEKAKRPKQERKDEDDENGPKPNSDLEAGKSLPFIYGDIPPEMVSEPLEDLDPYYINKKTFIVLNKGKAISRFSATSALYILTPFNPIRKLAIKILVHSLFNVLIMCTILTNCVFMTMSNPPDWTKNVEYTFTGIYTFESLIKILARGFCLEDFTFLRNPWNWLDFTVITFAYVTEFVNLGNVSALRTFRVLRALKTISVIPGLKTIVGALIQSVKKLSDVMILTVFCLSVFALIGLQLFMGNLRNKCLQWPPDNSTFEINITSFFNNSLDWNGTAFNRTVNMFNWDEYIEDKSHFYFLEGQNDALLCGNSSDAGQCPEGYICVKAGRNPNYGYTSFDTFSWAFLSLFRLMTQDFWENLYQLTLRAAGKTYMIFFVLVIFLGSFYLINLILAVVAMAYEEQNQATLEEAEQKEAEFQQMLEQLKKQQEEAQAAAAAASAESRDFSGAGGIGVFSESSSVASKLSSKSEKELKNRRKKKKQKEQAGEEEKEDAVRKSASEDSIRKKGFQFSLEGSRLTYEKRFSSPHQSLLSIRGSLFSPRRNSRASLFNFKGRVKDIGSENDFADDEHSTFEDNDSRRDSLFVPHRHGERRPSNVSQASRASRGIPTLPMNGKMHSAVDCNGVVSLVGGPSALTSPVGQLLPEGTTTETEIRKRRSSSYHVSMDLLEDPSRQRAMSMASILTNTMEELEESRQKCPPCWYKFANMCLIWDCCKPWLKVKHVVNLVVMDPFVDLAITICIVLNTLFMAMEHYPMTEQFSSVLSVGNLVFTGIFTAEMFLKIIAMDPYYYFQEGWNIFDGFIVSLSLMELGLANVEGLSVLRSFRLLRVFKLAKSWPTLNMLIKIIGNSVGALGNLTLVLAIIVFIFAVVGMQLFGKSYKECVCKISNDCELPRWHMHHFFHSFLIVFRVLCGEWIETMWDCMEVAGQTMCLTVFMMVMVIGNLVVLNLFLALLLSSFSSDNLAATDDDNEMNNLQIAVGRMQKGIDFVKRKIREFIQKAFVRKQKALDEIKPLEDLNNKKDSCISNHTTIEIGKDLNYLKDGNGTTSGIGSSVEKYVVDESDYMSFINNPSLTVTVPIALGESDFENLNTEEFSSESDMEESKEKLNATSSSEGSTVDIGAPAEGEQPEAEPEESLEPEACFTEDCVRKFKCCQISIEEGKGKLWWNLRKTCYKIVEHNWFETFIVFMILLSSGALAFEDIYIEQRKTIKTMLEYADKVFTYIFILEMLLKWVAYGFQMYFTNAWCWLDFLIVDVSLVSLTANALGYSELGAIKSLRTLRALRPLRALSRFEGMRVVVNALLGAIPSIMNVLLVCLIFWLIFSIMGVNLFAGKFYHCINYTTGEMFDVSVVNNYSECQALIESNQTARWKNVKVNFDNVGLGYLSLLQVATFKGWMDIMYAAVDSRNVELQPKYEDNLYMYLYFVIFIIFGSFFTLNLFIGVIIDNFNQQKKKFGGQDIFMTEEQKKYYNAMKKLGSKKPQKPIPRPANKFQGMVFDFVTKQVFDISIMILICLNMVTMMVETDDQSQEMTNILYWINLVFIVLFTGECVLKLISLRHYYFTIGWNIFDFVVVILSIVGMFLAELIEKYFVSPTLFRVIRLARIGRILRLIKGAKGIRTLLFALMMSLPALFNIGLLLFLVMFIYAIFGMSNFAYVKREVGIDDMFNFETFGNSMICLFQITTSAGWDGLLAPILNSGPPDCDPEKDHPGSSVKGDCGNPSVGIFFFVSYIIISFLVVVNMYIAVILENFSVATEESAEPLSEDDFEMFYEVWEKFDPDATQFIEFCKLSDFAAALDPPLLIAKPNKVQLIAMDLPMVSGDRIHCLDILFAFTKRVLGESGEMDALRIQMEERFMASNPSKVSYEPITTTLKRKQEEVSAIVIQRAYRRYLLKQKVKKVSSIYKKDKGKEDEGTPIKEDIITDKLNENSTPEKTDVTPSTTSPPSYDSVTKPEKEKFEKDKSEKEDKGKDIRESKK
Sequence of CYP2C9 (P11712 whole entry, canonical isoform): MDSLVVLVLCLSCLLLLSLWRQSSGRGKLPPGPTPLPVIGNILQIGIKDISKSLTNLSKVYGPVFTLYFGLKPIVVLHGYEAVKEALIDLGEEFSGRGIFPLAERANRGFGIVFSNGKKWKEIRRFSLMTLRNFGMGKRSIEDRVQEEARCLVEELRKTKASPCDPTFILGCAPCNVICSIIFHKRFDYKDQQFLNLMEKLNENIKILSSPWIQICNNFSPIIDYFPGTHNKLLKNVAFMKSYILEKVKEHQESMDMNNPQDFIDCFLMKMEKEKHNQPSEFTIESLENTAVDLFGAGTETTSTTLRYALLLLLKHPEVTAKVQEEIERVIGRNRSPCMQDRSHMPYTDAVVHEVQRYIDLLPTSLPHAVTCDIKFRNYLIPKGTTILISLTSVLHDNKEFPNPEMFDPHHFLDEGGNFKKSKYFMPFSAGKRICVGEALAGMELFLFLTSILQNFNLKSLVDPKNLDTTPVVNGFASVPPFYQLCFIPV
Sequence of CHO-K1 (NaV1.4) (A0A9J7H6F9 1-1930): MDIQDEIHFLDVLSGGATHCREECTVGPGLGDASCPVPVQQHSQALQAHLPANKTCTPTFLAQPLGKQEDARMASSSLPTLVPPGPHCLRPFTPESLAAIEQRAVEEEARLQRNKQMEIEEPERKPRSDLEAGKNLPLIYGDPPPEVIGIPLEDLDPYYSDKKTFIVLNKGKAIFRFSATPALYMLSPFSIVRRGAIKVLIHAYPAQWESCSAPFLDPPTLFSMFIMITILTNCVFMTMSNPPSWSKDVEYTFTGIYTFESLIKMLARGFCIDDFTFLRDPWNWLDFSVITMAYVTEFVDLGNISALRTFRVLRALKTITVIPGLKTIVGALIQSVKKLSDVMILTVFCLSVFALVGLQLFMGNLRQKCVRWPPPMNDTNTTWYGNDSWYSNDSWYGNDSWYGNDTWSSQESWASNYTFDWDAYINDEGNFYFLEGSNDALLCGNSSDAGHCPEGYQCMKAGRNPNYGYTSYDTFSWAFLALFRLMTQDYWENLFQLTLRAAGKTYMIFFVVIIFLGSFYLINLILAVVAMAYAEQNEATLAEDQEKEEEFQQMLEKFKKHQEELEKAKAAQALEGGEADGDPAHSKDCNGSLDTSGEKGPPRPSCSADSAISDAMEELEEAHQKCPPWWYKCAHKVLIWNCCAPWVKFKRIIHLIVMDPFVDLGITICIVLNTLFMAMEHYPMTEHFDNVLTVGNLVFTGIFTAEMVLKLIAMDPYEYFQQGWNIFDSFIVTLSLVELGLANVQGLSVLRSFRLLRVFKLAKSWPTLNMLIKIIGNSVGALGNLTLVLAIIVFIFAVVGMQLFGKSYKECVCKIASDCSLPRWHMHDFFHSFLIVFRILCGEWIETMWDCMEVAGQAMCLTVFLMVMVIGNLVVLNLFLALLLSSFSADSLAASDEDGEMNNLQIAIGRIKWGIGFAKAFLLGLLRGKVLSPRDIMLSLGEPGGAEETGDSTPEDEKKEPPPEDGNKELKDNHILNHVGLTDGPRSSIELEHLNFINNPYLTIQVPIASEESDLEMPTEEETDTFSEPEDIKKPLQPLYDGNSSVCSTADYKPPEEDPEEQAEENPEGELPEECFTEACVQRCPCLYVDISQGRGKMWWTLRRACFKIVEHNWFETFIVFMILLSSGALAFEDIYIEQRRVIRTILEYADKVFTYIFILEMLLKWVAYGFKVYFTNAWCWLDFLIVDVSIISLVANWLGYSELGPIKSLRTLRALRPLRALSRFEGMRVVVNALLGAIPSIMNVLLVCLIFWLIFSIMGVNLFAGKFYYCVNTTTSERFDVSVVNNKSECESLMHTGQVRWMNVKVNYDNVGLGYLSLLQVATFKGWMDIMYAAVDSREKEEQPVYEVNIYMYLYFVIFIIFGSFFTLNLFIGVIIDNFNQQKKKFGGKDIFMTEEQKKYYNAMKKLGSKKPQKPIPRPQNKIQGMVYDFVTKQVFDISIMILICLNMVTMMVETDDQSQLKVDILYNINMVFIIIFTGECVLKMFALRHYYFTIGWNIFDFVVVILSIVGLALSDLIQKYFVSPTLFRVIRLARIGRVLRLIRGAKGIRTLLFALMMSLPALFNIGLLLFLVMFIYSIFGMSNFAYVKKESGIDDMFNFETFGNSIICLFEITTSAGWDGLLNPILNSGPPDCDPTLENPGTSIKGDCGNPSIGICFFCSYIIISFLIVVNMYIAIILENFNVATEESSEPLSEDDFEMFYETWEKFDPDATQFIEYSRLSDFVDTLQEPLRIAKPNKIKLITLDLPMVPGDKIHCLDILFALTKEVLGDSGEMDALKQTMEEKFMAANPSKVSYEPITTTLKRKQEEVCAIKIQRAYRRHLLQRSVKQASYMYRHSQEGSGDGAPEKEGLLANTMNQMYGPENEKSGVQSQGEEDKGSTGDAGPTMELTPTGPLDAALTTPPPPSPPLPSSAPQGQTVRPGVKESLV

## Nc1ccc(S(=O)(=O)Nc2ccnn2-c2ccccc2)cc1 [Sulfaphenazole]
CYP2C9
  inhibition at 0.42 µM: 50%

## COc1ccc2c(n1)C1(CO2)C(=O)N(Cc2ncccc2C(F)(F)F)c2ccccc21 (stereo not drawn) [Example 13, 5-methoxy-1′-{[3-(trifluoromethyl)pyridin-2-yl]methyl}spiro[furo[3,2-b]pyridine-3,3′-indol]-2′(1′H)-one]
CYP3A4
  inhibition at 10 µM: < 50%
Sodium channel
  IC50: 100 to 1000 nM
other
  melting point: 195 to 198 °C

## COc1ccc2c(n1)C1(CO2)C(=O)N(C[C@H]2CCCO2)c2ccccc21 (stereo partly drawn) [Example 2, 5-methoxy-1′-[(2R)-tetrahydrofuran-2-ylmethyl]spiro[furo[3,2-b]pyridine-3,3′-indol]-2′(1′H)-one]
other
  melting point: 52 to 56 °C

## O=C1Nc2ncccc2C12COc1cc3c(cc12)OCCO3 (stereo not drawn) [Example 6, 2,3-dihydrospiro[furo[2,3-g][1,4]benzodioxine-8,3′-pyrrolo[2,3-b]pyridin]-2′(1′H)-one]
CYP3A4
  inhibition at 10 µM: < 50%
Sodium channel
  IC50: 100 to 1000 nM
other
  melting point: > 250 °C

## O=C1Nc2cccnc2C12COc1cc3c(cc12)OCCO3 (stereo not drawn) [Example 10, 2,3-dihydrospiro[furo[2,3-g][1,4]benzodioxine-8,3′-pyrrolo[3,2-b]pyridin]-2′(1′H)-one]
CYP3A4
  inhibition at 10 µM: < 50%
Sodium channel
  IC50: 1000 to 10000 nM
other
  melting point: > 250 °C

## COc1ccc2c(n1)C1(CO2)C(=O)N(Cc2ccc3c(c2)OCCO3)c2ccccc21 (stereo not drawn) [Example 3, 1′-(2,3-dihydro-1,4-benzodioxin-6-ylmethyl)-5-methoxyspiro[furo[3,2-b]pyridine-3,3′-indol]-2′(1′H)-one]
Sodium channel
  IC50: 1 to 100 nM
other
  melting point: 144 to 146 °C

## O=C1N(Cc2ccccn2)c2ncccc2C12COc1cc3c(cc12)OCCO3 (stereo not drawn) [Example 7, 1′-(pyridin-2-ylmethyl)-2,3-dihydrospiro[furo[2,3-g][1,4]benzodioxine-8,3′-pyrrolo[2,3-b]pyridin]-2′(1′H)-one]
CYP3A4
  inhibition at 10 µM: < 50%
Sodium channel
  IC50: 1 to 100 nM

## NC1=N[C@H](O)[C@H]2[C@H]3O[C@]4(O)O[C@@H]([C@@H](O)[C@@]2(N1)[C@@H]4O)[C@]3(O)CO [TTX, tetrodotoxin]
CHO-K1 (NaV1.4)
  block of the increase in [14C] guanidine influx: completely blocked using TTX.
L6 (Nav1.4 and 1.5)
  block of the increase in [14C] guanidine influx: partially blocked by TTX at 100
SK-N-BE2C (NaV1.8)
  block of the increase in [14C] guanidine influx: TTX partially blocked influx
[1]
  block of the increase in [14C] guanidine influx: background was partially blocked
PC12 (Nav1.2)
  block of the increase in [14C] guanidine influx: guanidine influx was completely

## COc1ccc2c(n1)C1(CO2)C(=O)N(C[C@H]2CCCO2)c2cccc(Br)c21 (stereo partly drawn) [Example 1, 4′-bromo-5-methoxy-1′-[(2R)-tetrahydrofuran-2-ylmethyl]spiro[furo[3,2-b]pyridine-3,3′-indol]-2′(1′H)-one]
CYP3A4
  inhibition at 10 µM: < 50%
Sodium channel
  IC50: 100 to 1000 nM
other
  melting point: 110 to 112 °C

## O=C1N(Cc2ncccc2C(F)(F)F)c2cccnc2C12COc1cc3c(cc12)OCCO3 (stereo not drawn) [Example 12, 1′-{[3-(trifluoromethyl)pyridin-2-yl]methyl}-2,3-dihydrospiro[furo[2,3-g][1,4]benzodioxine-8,3′-pyrrolo[3,2-b]pyridin]-2′(1′H)-one]
CYP3A4
  inhibition at 10 µM: < 50%
Sodium channel
  IC50: 100 to 1000 nM
other
  melting point: > 250 °C

## C=C[C@H]1C[N@@]2CC[C@H]1C[C@@H]2[C@@H](O)c1ccnc2ccc(OC)cc12 [Quinidine]
CYP2D6
  inhibition at 0.0137 µM: 55%

## O=C1N(Cc2ccccn2)c2cccnc2C12COc1cc3c(cc12)OCCO3 (stereo not drawn) [Example 11, 1′-(pyridin-2-ylmethyl)-2,3-dihydrospiro[furo[2,3-g][1,4]benzodioxine-8,3′-pyrrolo[3,2-b]pyridin]-2′(1′H)-one]
CYP3A4
  inhibition at 10 µM: < 50%
Sodium channel
  IC50: 100 to 1000 nM
other
  melting point: 146 to 147 °C

## O=C1N(C[C@H]2CCCO2)c2ccccc2C12COc1c[nH]c(=O)cc12 (stereo partly drawn) [Example 4, 1′-[(2R)-tetrahydrofuran-2-ylmethyl]spiro[furo[2,3-c]pyridine-3,3′-indole]-2′,5(1′H,6H)-dione]
CYP3A4
  inhibition at 10 µM: < 50%
Sodium channel
  IC50: 1000 to 10000 nM
other
  melting point: > 250 °C

## CC(=O)N1CCN(c2ccc(OCC3COC(Cn4ccnc4)(c4ccc(Cl)cc4Cl)O3)cc2)CC1 (stereo not drawn) [Ketoconazole]
CYP2C19
  inhibition at 7.62 µM: 65%

## O=C1N(Cc2ncccc2C(F)(F)F)c2ncccc2C12COc1cc3c(cc12)OCCO3 (stereo not drawn) [Example 8, 1′-{[3-(trifluoromethyl)pyridin-2-yl]methyl}-2,3-dihydrospiro[furo[2,3-g][1,4]benzodioxine-8,3′-pyrrolo[2,3-b]pyridin]-2′(1′H)-one]
CYP3A4
  inhibition at 10 µM: < 50%
Sodium channel
  IC50: 100 to 1000 nM
